The values that follow come from US20120282237A1, “USE OF PROTEIN ARGININE METHYLTRANSFERASES IN REGULATING HEMATOPOIETIC DIFFERENTIATION” (priority 2011, published 2012).

Experiment [1] concerns K562 cells. Kind of experiment: PMA-induced megakaryocyte differentiation of K562 cells (modified Wright-Giemsa staining, adherent cells). The experiment is classed as cell-based, human. To be noted: PMA 40 nM. On the procedure:
For megakaryocyte differentiation, K562 cells were treated with 40 nM of PMA, (Sigma-Aldrich). Adherent cells with pseudopodia were examined by phase contrast light microscopy. For quantification, cells in suspension or loosely attached were first removed from the culture dish carefully, and adherent cells were then removed by trypsinization, collected, and counted. Cytological changes, including a multilobed nucleus and vacuolated cytoplasm, were examined by modified Wright-Giemsa staining. Three to four hundred cells were examined in each assay.
Megakaryopoiesis can be characterized by cytological changes and expression of lineage-specific markers such as CD41. […] In addition, we observed an increased number of adherent cells, about 30% at 96 hour (FIG. 2B, E3-6).

The test system of experiment [2] is human CD34+ hematopoietic cells. The experiment is described as follows: TPO-induced megakaryocyte differentiation of CD34+ cells, CD41 expression by flow cytometry. Conditions: TPO alone (100 ng/ml), day 15. The experiment is classed as cell-based. On the procedure: To analyze the megakaryocyte surface marker CD41, cells were first incubated in 2% bovine serum albumin for 30 min and then with fluorescein isothiocyanate (FITC)-conjugated anti-Plt-1 (CD41) antibodies (1:80, Beckman Coulter) in 1% bovine serum albumin for 30 min; cells were then analyzed by flow cytometry.
To investigate the effect of PRMT1 in more physiologically relevant conditions, TAT-HA-PRMT1 was introduced into human CD34^+ hematopoietic cells. CD34^+ cells were derived from human umbilical cord blood with consent from the mother and were collected and processed according to governmental regulations (“Guidelines for Collection and Use of Human Specimens for Research.” Department of Health, Taiwan). Isolation and expansion of CD34^+ cells were performed as described previously (Yao, et al., Stem Cells Dev. 2006, 15, 70-78).
Briefly, the CD34^+ cells were purified with CD34 microbeads by a Miltenyi VarioMACS device (Miltenyi Biotec) and cultivated in serum-free Iscove's modified Dulbecco's medium (IMDM) (HyClone) supplemented with serum substitutes (1.5 g/liter bovine serum albumin, 4.4 μg/ml insulin, 60 μg/ml transferrin, and 25.9 μM 2-mercaptoethanol) and a cytokine mixture (8.5 ng/ml TPO, 4.1 ng/ml interleukin-3, 15 ng/ml stem cell factor, 6.7 ng/ml flk2/flt3 ligand, 0.8 ng/ml interleukin-6, 3.2 ng/ml granulocyte colony-stimulating factor, and 1.3 ng/ml granulocyte-macrophage colony-stimulating factor) for 6 to 7 days. To induce megakaryocyte differentiation, the expanded CD34^+ cells were cultivated (5×10^4cells/ml) in media described above without cytokine mixture for 6 h. TPO (100 ng/ml) was added to induce differentiation. Expression of CD41 was analyzed by flow cytometry 15 days after TPO stimulation.
Recombinant TAT-fused HA-PRMT1 and HA-GFP (as a control) proteins were expressed in Escherichia coli and purified using Ni^+-nitrilotriacetic acid-agarose (Qiagen). Endotoxins were removed using Detoxi-Gel™ endotoxin removing gel (Pierce) according to the manufacturer's instructions. For differentiation study, recombinant TAT-fused proteins were added to CD34^+ cells 6 h before TPO stimulation and again at the time of TPO addition.
Both the recombinant TAT-conjugated HA-PRMT1 protein and the HA-GFP control protein were detected in cells by Western blot analysis (FIG. 6A). Erk was used as a loading control. Thrombopoietin (TPO) induces CD34^+ hematopoietic cells to undergo differentiation towards the megakaryocyte lineage as detected by the expression of the specific surface marker CD41. TPO-induced CD41 expression ranged from 45% to 76% in four different donors at day 15 after TPO treatment (Table 1).
(In general: Flow cytometry measures light scatter and fluorescence of single cells or particles in a stream.)

Experiment [3] has as its system K562 cells. Kind of experiment: Ara-C-induced erythroid differentiation of K562 cells, benzidine staining. The experiment is classed as cell-based, human. How it is done: Various K562 cell clones were treated with Ara-C (A, 1 μM) and sodium butyrate (B, 2 mM) for 96 hr, and measured by qualifying hemoglobin-positive cells with benzidine stain. […] All experiments were performed at least three times and data are presented as means±S.E.; *** p<0.005 as compared with K562 parental cells.
The methyltransferase inhibitor, adenosine dialdehyde (AdOx), was added 8 hours before Ara-C treatment. Inhibition of methylation suppressed Ara-C-induced erythroid differentiation (A). The enzymatically impaired mutant PRMT1G80R, when transiently expressed in K562 cells (B), lost the effect on both megakaryocyte (C) and erythroid (D) differentiations. […] All experiments were performed at least three times and data are presented as means±S.E.; *** p<0.005 as compared with K562 parental cells.
In order to test whether activity of PRMT1 participates in regulation of differentiation, adenosine dialdehyde (AdOx), an inhibitor of S-adenosylhomocysteine hydrolase, which indirectly suppresses methylation due to accumulation of products, was used to treat K562 cells. […] A single amino acid mutation (G80R) in the conserved SAM binding domain of PRMT1 with impaired methyltransferase activity (Kwak et al., Mol. Cell 2003, 11, 1055-1066), HA-PRMT1G80R, was transiently expressed in K562 cells (FIG. 5B).

Regarding `CCCCCCCCCCCCCC(=O)O[C@@H]1[C@@H](C)[C@@]2(O)[C@@H](C=C(CO)C[C@]3(O)C(=O)C(C)=C[C@@H]23)[C@@H]2C(C)(C)[C@]12OC(C)=O` [PMA, Phobol 12-myristate 13-acetate], the “cells with characteristics of megakaryocytes” value with K562 cells [1] (E3-6 and parental K562 cells, 96 hours) was “About 50%”. Further, the adherent cells result with K562 cells [1] (E3-6 cells, 96 hour) is “about 30%”.
With “TPO: Thrombopoietin, inducer of megakaryocyte differentiation of CD34+ cells (100 ng/ml)”, the CD41 expression came out at 62.3% in experiment [2] (donor 1), 44.7% in experiment [2] (donor 2), 68.2% in experiment [2] (donor 3) and 75.7% in experiment [2] (donor 4).
Turning to `Nc1ncnc2c1ncn2C(C=O)OC(C=O)CO` (centres unmarked) [AdOx, adenosine dialdehyde], the Ara-C-induced erythrocytic differentiation result in the experiment on K562 cells [3] (AdOx added 8 hours before Ara-C treatment) is “dramatically suppressed”. For the same compound, the erythrocytic differentiation entry with K562 cells [3] (AdOx alone, no Ara-C) was “did not influence differentiation”.
